The subject of data set [1] is Staphylococcus aureus strain Seattle 1945 (ATCC #25923). Put plainly: bacterial proliferation assay, S. aureus. In kind it is cell-based. The method, then:
(§1) All compounds were evaluated for inhibiting the proliferation of E. coli and each of the ESKAPE bacteria. Results presented represent the averages of EC50 values obtained from at least four replicates. Evaluating compounds for inhibition of bacterial cell proliferation.
(§2) Growth Media: E. coli were grown with LB medium and all ESKAPE bacteria were grown in Brain Heart Infusion (BHI) medium (Becton, Dickinson and Company), with all liquid cultures supplemented with 25 mg/L Ca^2+ and 12.5 mg/L Mg^2+ to mimic physiological free concentrations of these cations. A 10 mg/mL Ca^2+ stock solution was prepared by dissolving 1.84 g of CaCl2.2H2O in 50 mL of deionized water, and a 10 mg/mL Mg^2+ stock solution was prepared by dissolving 4.18 g of MgCl2.6H2O in 50 mL deionized water—filter sterilized using 0.2 μm cellulose-acetate filters. 2.5 mL of the sterile 10 mg/mL Ca^2+ stock and 1.25 mL of the sterile 10 mg/mL Mg^2+ stock solutions were added per 1 L of autoclaved LB or BHI media to obtain 25 mg/L Ca^2+ and 12.5 mg/L Mg^2+ ions, respectively.
(§3) General Assay Protocol: Stock bacterial cultures were streaked onto LB or BHI agar plates and grown overnight at 37° C. Fresh aliquots of cation supplemented media were inoculated with single bacterial colonies and the cultures were grown overnight at 37° C. with shaking (240 rpm). The following morning, cultures were diluted 10-fold into fresh media and grown at 37° C. until bacteria had reached mid-log phase growth (OD600˜0.4-0.6). The cultures were then diluted into fresh media to achieve final OD600 readings of 0.017. Aliquots of these diluted cultures (30 μL) were added to clear, flat-bottom 384-well polystyrene plates that were previously stamped with 0.5 μL of test compounds in 20 μL of media (yielding initial OD600=0.01 bacterial cultures). All compounds were tested in dose-response with concentration ranges during the proliferation assays from 100 μM to 46 nM (3-fold dilution series). A second set of baseline control plates were prepared analogously, but without any bacteria added, to correct for possible compound absorbance and/or precipitation. […] Plates were then read at 600 nm using a Molecular Devices SpectraMax Plus384 microplate reader. […] Results presented represent the averages of EC50 values obtained from at least four replicates.
(§4) Evaluating analogs for inhibiting the growth of E. coli and the ESKAPE bacteria. Analogs were initially tested for antibacterial efficacy against representative strains of antibiotic-sensitive E. coli and the ESKAPE bacteria. To determine compound efficacy, bacterial proliferation assays were carried out in liquid media culture supplemented with physiological concentrations of free calcium and magnesium cations. For these assays, bacterial cultures (OD600=0.01) were exposed to test compounds in 8-point, 3-fold dilution series (100 μM to 46 nM concentration range), in 384-well plates. After addition of compounds to cultures, the plates were sealed with Breathe-Easy gas permeable membranes and allowed to grow to mid-log phase (OD600˜0.4-0.6), whereupon final OD600 readings were taken to assess for bacterial growth and inhibition.

Data set [2] concerns Enterococcus faecium strain NCTC 7171 (ATCC #19434). The data set can be described thus: bacterial proliferation assay, E. faecium. The format is cell-based. To be noted: read-out: Bacterial Proliferation EC50 E. faecium. The method, then:
as §1, §2, §3, §4

Data set [3] in a line: in vitro. Conditions: human. How it is done: (§5) Evaluating compound effects on the viability of human colon and small intestine cells. […] Evaluating compound effects on the viability of human colon and small intestine cells. Evaluation of compound cytotoxicities to FHC colon and FHs 74 Int small intestine cells were performed using Alamar Blue-based viability assays. […] FHs 74 Int cells were maintained in Hybri-care medium (ATCC 46-X) supplemented with 30 ng/mL recombinant epidermal growth factor (EGF) and 10% FBS (Midwest Scientific, USDAFBS).

A short description of data set [4]: in vitro. To be noted: human. The method, then:
as §5
This is another data set of the same source.

The mark [5] stands for this setting: Staphylococcus aureus, ATCC25923; read-out: Bacterial Proliferation EC50 S. aureus.

Where two headings read alike, the source gives them in different places.

Regarding `CN(C)c1ccc(C(=O)N/N=C/c2ccc(O)c3ncccc23)cc1` [Compound 8, 4-(dimethylamino)-N′-((8-hydroxyquinolin-5-yl)methylene)benzohydrazide], the EC50 is 99 µM in data set [1] (setting [5]) and over 100 µM in data set [2].
For `O=C(N/N=C/c1ccc([N+](=O)[O-])o1)c1ccc(NS(=O)(=O)c2ccc(Br)cc2)cc1` [Compound 27, 4-bromo-N-(4-(2-((5-nitrofuran-2-yl)methylene)hydrazine-1-carbonyl)phenyl)benzenesulfonamide], the CC50 at 48 h in “in vitro [3]” is 90 µM; in “in vitro [4]”, over 100 µM. In addition, the EC50 in data set [1] (setting [5]) and in data set [2] was over 100 µM each time.
With `O=C(N/N=C/c1ccc(O)c2ncccc12)c1cccc(Oc2ccccc2)c1` [Compound 11, N′-((8-hydroxyquinolin-5-yl)methylene)-3-phenoxybenzohydrazide], the EC50 in data set [1] (setting [5]) and in data set [2] was over 100 µM each time.
As for `O=C(N/N=C/c1ccc([N+](=O)[O-])o1)c1ccccc1Oc1ccccc1` [Compound 23, N′-((5-nitrofuran-2-yl)methylene)-2-phenoxybenzohydrazide], the EC50 was determined as 5.2 µM in data set [1] (setting [5]) and 11 µM in data set [2].
Taken in the same sequence, the figures for `O=[N+]([O-])c1ccc(O)c2ncccc12` [Nitroxoline, reference compound] were 9.5 µM and 18 µM.
In the case of `COc1ccc(C(=O)N/N=C/c2ccc(O)cc2)cc1` [Compound 35, N′-(4-hydroxybenzylidene)-4-methoxybenzohydrazide], the CC50 at 48 h in the data set “in vitro [3]” and in the data set “in vitro [4]” was over 100 µM in each case. Moreover, the EC50 in data set [1] (setting [5]) and in data set [2] was over 100 µM in each case.
Consider `O=C(N/N=C/c1ccc(O)c2ncccc12)c1cccs1` [Compound 3, N′-((8-hydroxyquinolin-5-yl)methylene)thiophene-2-carbohydrazide], for which the CC50 at 48 h is 85 µM in “in vitro [3]” and 86 µM in “in vitro [4]”. The EC50 in data set [1] (setting [5]) was 63 µM; in data set [2], over 100 µM.
In the same order, the values of `O=C(N/N=C/c1ccccc1)c1ccccc1` [Compound 38, N′-benzylidenebenzohydrazide] are over 100 µM, over 100 µM, over 100 µM and over 100 µM.
With `O=C(N/N=C/c1ccc(O)c2ncccc12)c1ccc(NS(=O)(=O)c2cccs2)cc1` [Compound 13, N-(4-(2-((8-hydroxyquinolin-5-yl)methylene)hydrazine-1-carbonyl)phenyl)thiophene-2-sulfonamide], the EC50 in data set [1] (setting [5]) and in data set [2] was over 100 µM throughout.
For `COc1ccc(C(=O)NN)cc1` [Compound 42, reference compound], the CC50 at 48 h in the data set “in vitro [3]” and in “in vitro [4]” was over 100 µM each time. Further, the EC50 in data set [1] (setting [5]) and in data set [2] was over 100 µM in each case.
As for `O=C(N/N=C/c1ccc(O)c2ncccc12)c1ccncc1` [Compound 6, N′-((8-hydroxyquinolin-5-yl)methylene)isonicotinohydrazide], the CC50 at 48 h in “in vitro [3]” is over 100 µM; in the data set “in vitro [4]”, 75 µM. Also, the EC50 in data set [1] (setting [5]) and in data set [2] was over 100 µM in each case.
In the case of `O=C(N/N=C/c1ccc(O)c2ncccc12)c1ccccc1Oc1ccccc1` [Compound 10, N′-((8-hydroxyquinolin-5-yl)methylene)-2-phenoxybenzohydrazide], the EC50 in data set [1] (setting [5]) and in data set [2] was over 100 µM in each case.
`O=C(N/N=C/c1ccc([N+](=O)[O-])o1)c1ccc(NS(=O)(=O)c2cccs2)cc1` [Compound 26, N-(4-(2-((5-nitrofuran-2-yl)methylene)hydrazine-1-carbonyl)phenyl)thiophene-2-sulfonamide]: the CC50 at 48 h in the data set “in vitro [3]” is over 100 µM; in the data set “in vitro [4]”, 70 µM. Also, the EC50 in data set [1] (setting [5]) and in data set [2] was 11 µM each time.
Consider `O=C(N/N=C/c1ccc(O)c2ccccc12)c1ccccc1` [Compound 30, N′-((4-hydroxynaphthalen-1-yl)methylene)benzohydrazide], for which the CC50 at 48 h in “in vitro [3]” and in “in vitro [4]” was over 100 µM throughout. Besides, the EC50 in data set [1] (setting [5]) was 88 µM; in data set [2] it was over 100 µM.
As for `O=C(N/N=C/c1ccc([N+](=O)[O-])o1)c1cccc(Oc2ccccc2)c1` [Compound 24, N′-((5-nitrofuran-2-yl)methylene)-3-phenoxybenzohydrazide], the EC50 was determined as 3.5 µM in data set [1] (setting [5]) and 11 µM in data set [2].
With `COc1ccc(C(=O)N/N=C/c2ccc(O)c3ccccc23)cc1` [Compound 29, N′-((4-hydroxynaphthalen-1-yl)methylene)-4-methoxybenzohydrazide], the CC50 at 48 h in the data set “in vitro [3]” and in the data set “in vitro [4]” was over 100 µM throughout. For the same compound, the EC50 in data set [1] (setting [5]) and in data set [2] was over 100 µM in each case.
`O=C(N/N=C/c1ccc(O)cc1)c1ccccc1` [Compound 36, N′-(4-hydroxybenzylidene)benzohydrazide]: the CC50 at 48 h in the data set “in vitro [3]” and in the data set “in vitro [4]” was over 100 µM in each case. For the same compound, the EC50 in data set [1] (setting [5]) and in data set [2] was over 100 µM each time.
Take `O=C(N/N=C/c1ccc([N+](=O)[O-])o1)c1cccc2ccccc12` [Compound 22, N′-((5-nitrofuran-2-yl)methylene)-1-naphthohydrazide]: the EC50 in data set [1] (setting [5]) is 6 µM; in data set [2], 16 µM.
In the same order, the values of `CCOc1ccc(S(=O)(=O)Nc2ccc(C(=O)N/N=C/c3ccc(O)c4ncccc34)cc2)cc1` [Compound 15, 4-ethoxy-N-(4-(2-((8-hydroxyquinolin-5-yl)methylene)hydrazine-1-carbonyl)phenyl)benzenesulfonamide] are over 100 µM and over 100 µM.
`COc1ccc(C(=O)N/N=C/c2ccccc2)cc1` [Compound 37, N′-benzylidene-4-methoxybenzohydrazide]: the CC50 at 48 h in the data set “in vitro [3]” and in “in vitro [4]” was over 100 µM each time. Further, the EC50 in data set [1] (setting [5]) and in data set [2] was over 100 µM in each case.
For the compound `COc1ccc(C(=O)N/N=C/c2cccc3ccccc23)cc1` [Compound 33, 4-methoxy-N′-(naphthalen-1-ylmethylene)benzohydrazide], the CC50 at 48 h in the data set “in vitro [3]” and in the data set “in vitro [4]” was over 100 µM each time. Moreover, the EC50 in data set [1] (setting [5]) and in data set [2] was over 100 µM throughout.
Take `CCN(CC)S(=O)(=O)c1cccc(C(=O)N/N=C/c2ccc(O)c3ncccc23)c1` [Compound 12, N,N-diethyl-3-(2-((8-hydroxyquinolin-5-yl)methylene)hydrazine-1-carbonyl)benzenesulfonamide]: the EC50 in data set [1] (setting [5]) and in data set [2] was over 100 µM each time.
For the compound `O=C(N/N=C/c1ccc(O)c2ncccc12)c1ccccc1` [Compound 5, N′-((8-hydroxyquinolin-5-yl)methylene)benzohydrazide], the EC50 is 69 µM in data set [1] (setting [5]) and over 100 µM in data set [2].
Take `O=C(N/N=C/c1ccc(O)c2ncccc12)c1ccc(NS(=O)(=O)c2ccc(Br)cc2)cc1` [Compound 14, 4-bromo-N-(4-(2-((8-hydroxyquinolin-5-yl)methylene)hydrazine-1-carbonyl)phenyl)benzenesulfonamide]: the EC50 is over 100 µM in data set [1] (Staphylococcus aureus, ATCC25923, read-out: Bacterial Proliferation EC50 S. aureus) and over 100 µM in data set [2].
On to `O=C(N/N=C/c1ccc(O)c2ncccc12)c1cccc2ccccc12` [Compound 9, N′-((8-hydroxyquinolin-5-yl)methylene)-1-naphthohydrazide], for which the EC50 is 56 µM in data set [1] (setting [5]) and over 100 µM in data set [2].
In the same order, the values of `O=C(N/N=C/c1ccc(O)c2ncccc12)c1ccc(Cl)s1` [Compound 4, 5-chloro-N′-((8-hydroxyquinolin-5-yl)methylene)thiophene-2-carbohydrazide] are 84 µM and 70 µM.
